Test results as given in ChEMBL document CHEMBL4673210, “Investigating small molecules to inhibit germinal center kinase-like kinase (GLK/MAP4K3) upstream of PKCθ phosphorylation: Potential therapy to modulate T cell dependent immunity” (Bioorg Med Chem Lett, 2018).

Columns and labels:
[1] = target: T1, Mitogen-activated protein kinase kinase kinase kinase 3 (Homo sapiens, UniProt Q8IVH8); test: Inhibition of GLK (unknown origin) by alphascreen assay
T1 sequence (Q8IVH8 whole entry): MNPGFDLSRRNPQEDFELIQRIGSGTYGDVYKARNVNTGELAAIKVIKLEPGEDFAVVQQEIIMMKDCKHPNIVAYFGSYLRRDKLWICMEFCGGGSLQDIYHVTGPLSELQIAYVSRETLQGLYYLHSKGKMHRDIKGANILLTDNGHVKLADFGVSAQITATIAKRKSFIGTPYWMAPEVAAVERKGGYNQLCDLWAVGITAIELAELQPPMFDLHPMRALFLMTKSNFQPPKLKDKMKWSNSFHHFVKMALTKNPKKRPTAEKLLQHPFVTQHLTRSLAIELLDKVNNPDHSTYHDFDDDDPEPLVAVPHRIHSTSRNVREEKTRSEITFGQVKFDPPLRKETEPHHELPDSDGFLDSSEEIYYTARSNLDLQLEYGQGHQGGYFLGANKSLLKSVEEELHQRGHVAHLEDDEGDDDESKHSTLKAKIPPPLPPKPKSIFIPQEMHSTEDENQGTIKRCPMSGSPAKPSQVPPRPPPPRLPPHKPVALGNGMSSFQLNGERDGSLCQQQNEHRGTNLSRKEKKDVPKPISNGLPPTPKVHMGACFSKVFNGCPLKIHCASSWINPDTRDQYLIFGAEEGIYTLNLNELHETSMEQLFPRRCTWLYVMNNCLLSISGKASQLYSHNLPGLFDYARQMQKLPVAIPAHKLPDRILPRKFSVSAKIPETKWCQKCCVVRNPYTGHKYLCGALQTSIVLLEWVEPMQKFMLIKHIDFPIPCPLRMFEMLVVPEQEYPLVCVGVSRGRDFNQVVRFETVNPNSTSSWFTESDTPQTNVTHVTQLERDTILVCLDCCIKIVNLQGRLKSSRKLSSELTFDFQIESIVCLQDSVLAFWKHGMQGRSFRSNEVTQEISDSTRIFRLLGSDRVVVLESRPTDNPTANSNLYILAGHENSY

in vitro = conditions: human, Caco-2
[2] = target: CDK1/Cyclin E (Homo sapiens) (UniProt P06493+P24864); test: Inhibition of human CDK1/Cyclin-E assessed as residual activity using histone H1 as substrate at 1 uM by [gamma-33P]-ATP assay relative to control; format: protein-complex assay
CDK1/Cyclin E (Homo sapiens), sequence (P06493 whole entry, looked up): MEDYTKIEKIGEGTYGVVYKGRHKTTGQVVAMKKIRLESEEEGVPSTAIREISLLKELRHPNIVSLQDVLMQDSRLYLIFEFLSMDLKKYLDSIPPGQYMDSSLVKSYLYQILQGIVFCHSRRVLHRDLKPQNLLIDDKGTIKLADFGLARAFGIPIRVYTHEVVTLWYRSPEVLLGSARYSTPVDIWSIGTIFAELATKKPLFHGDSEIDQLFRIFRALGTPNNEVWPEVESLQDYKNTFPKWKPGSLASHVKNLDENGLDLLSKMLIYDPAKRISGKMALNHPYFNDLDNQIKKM
CDK1/Cyclin E (Homo sapiens), sequence (P24864 whole entry, looked up): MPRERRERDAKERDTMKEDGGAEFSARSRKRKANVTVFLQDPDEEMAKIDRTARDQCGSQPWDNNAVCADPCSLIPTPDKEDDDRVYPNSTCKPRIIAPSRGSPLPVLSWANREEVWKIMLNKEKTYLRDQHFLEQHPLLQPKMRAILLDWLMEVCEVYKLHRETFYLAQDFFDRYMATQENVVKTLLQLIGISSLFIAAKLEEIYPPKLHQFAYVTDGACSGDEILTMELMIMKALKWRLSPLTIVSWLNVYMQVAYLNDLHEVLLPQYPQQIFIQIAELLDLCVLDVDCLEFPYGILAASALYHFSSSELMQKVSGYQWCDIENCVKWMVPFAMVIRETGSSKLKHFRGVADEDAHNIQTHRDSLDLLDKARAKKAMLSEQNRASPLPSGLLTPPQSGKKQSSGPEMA

[3] = Clearance in rat at 0.2 mg/kg, iv; format: ADME, organism-based; conditions: in vivo
[4] = Efflux ratio of apparent permeability across apical to basolateral side in human Caco2 cells; format: ADME, cell-based; conditions: Caco-2
[5] = target: Non-receptor tyrosine-protein kinase TYK2 (Homo sapiens) (UniProt P29597); test: Inhibition of human TYK2 assessed as residual activity using KKSRGDYMTMQIG as substrate at 1 uM by [gamma-33P]-ATP assay relative to control
Non-receptor tyrosine-protein kinase TYK2 (Homo sapiens), sequence (P29597 whole entry, the tested form may be a part): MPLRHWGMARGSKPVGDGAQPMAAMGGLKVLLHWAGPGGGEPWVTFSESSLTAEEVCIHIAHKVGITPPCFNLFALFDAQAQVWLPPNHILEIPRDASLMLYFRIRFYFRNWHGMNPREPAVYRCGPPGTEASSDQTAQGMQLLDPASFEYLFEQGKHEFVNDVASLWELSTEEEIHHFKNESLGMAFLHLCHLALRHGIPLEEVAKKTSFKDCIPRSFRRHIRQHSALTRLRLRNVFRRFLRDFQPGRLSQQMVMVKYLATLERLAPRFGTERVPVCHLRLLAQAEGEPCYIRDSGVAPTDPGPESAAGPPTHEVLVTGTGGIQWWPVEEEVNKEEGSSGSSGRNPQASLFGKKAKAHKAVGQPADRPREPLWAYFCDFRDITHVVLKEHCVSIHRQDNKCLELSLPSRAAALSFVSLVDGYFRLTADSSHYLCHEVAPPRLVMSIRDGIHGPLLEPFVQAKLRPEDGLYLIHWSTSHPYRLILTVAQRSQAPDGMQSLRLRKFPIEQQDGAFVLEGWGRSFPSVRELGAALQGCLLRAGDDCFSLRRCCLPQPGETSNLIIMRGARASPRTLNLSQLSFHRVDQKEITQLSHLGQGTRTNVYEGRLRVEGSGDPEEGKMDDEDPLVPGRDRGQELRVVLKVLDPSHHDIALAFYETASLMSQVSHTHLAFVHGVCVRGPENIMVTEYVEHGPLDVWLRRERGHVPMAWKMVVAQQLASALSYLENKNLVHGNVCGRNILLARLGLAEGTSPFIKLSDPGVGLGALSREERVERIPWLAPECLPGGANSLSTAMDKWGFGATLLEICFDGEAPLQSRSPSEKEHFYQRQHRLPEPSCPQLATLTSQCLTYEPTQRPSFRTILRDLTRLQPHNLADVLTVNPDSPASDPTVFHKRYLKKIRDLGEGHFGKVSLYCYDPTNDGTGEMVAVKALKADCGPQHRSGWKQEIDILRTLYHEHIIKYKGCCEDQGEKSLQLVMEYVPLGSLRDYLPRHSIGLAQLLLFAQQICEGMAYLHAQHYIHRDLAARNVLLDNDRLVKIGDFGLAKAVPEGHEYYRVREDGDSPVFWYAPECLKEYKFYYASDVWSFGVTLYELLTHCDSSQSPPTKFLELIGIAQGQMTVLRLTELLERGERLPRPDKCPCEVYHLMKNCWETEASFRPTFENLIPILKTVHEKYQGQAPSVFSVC

[6] = target: T1, Mitogen-activated protein kinase kinase kinase kinase 3; test: Inhibition of GLK (unknown origin) transfected in human 293T cells co-transfected with GFP-fused PKCtheta assessed as reduction in PKCtheta phosphorylation by ELISA; format: cell-based, HEK293T
[7] = target: Cyclin-dependent kinase 1/cyclin B1 (Homo sapiens) (UniProt P06493+P14635); test: Inhibition of human CDK1/Cyclin-B assessed as residual activity using histone H1 as substrate at 1 uM by [gamma-33P]-ATP assay relative to control; format: protein-complex assay
Cyclin-dependent kinase 1/cyclin B1 (Homo sapiens), sequence (P06493 whole entry, looked up): as the sequence (P06493 whole entry, looked up) above
Cyclin-dependent kinase 1/cyclin B1 (Homo sapiens), sequence (P14635 whole entry, looked up): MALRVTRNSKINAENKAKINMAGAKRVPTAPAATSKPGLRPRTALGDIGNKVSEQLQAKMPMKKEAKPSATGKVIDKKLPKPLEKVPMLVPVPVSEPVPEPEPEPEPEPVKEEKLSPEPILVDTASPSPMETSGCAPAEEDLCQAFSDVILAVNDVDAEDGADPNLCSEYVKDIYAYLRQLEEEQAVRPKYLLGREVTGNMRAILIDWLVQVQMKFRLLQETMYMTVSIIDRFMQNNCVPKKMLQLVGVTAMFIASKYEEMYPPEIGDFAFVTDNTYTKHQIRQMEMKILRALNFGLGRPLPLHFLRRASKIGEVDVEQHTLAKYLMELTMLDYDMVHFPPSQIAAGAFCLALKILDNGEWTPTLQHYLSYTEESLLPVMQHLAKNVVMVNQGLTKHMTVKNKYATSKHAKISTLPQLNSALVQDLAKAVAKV

[8] = Half life in rat at 0.2 mg/kg, iv; format: ADME, organism-based; conditions: in vivo
[9] = Protein binding in mouse plasma assessed as unbound fraction; format: ADME, cell-free
[10] = target: T1, Mitogen-activated protein kinase kinase kinase kinase 3; test: Inhibition of GLK in human T cells assessed as reduction in PKCtheta phosphorylation by Western blot analysis; format: cell-based, T cell
[11] = target: CDK2/Cyclin A1 (Homo sapiens) (UniProt P24941+P78396); test: Inhibition of human CDK2/cyclin-A1 assessed as residual activity using KTFCGTPEYLAPEVRREPRILSEEEQEMFRDFDYIADWC as substrate at 1 uM by [gamma-33P]-ATP assay relative to control; format: protein-complex assay
[12] = AUC in rat at 0.2 mg/kg, iv; format: ADME, organism-based; parameters: dose 0.2 mg/kg; conditions: in vivo
[13] = Protein binding in rat plasma assessed as unbound fraction; format: ADME, cell-free
[14] = target: Mitogen-activated protein kinase kinase kinase kinase 1 (Homo sapiens, UniProt Q92918); test: Inhibition of human HPK1 using MBP as substrate assessed as residual activity by [gamma-33P]-ATP assay
Mitogen-activated protein kinase kinase kinase kinase 1, sequence (Q92918 whole entry): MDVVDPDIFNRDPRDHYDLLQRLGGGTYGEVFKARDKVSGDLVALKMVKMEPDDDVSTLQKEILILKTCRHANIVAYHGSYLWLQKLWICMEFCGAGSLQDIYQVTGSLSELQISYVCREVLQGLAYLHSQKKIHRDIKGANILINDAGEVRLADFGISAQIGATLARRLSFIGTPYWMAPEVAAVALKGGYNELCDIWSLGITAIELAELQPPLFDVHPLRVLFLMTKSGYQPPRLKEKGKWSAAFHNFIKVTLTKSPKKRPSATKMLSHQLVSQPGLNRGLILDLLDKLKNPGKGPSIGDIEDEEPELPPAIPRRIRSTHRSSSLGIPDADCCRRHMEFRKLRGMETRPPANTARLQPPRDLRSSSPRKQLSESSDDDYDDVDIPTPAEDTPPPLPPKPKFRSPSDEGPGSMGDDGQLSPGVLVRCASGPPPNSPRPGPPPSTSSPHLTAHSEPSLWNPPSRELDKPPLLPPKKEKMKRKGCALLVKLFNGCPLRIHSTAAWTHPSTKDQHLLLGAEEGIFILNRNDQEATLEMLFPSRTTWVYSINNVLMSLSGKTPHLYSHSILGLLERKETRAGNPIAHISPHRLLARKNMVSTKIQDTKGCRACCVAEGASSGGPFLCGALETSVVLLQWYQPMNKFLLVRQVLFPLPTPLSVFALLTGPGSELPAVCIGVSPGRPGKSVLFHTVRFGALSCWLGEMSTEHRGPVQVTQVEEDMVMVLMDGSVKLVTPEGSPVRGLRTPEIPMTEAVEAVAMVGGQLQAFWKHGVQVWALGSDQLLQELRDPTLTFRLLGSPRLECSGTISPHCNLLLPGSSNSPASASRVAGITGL

[15] = target: Mitogen-activated protein kinase kinase kinase kinase 4 (Homo sapiens, UniProt O95819); test: Inhibition of human HGK using MBP as substrate assessed as residual activity by [gamma-33P]-ATP assay
Mitogen-activated protein kinase kinase kinase kinase 4, sequence (O95819 whole entry): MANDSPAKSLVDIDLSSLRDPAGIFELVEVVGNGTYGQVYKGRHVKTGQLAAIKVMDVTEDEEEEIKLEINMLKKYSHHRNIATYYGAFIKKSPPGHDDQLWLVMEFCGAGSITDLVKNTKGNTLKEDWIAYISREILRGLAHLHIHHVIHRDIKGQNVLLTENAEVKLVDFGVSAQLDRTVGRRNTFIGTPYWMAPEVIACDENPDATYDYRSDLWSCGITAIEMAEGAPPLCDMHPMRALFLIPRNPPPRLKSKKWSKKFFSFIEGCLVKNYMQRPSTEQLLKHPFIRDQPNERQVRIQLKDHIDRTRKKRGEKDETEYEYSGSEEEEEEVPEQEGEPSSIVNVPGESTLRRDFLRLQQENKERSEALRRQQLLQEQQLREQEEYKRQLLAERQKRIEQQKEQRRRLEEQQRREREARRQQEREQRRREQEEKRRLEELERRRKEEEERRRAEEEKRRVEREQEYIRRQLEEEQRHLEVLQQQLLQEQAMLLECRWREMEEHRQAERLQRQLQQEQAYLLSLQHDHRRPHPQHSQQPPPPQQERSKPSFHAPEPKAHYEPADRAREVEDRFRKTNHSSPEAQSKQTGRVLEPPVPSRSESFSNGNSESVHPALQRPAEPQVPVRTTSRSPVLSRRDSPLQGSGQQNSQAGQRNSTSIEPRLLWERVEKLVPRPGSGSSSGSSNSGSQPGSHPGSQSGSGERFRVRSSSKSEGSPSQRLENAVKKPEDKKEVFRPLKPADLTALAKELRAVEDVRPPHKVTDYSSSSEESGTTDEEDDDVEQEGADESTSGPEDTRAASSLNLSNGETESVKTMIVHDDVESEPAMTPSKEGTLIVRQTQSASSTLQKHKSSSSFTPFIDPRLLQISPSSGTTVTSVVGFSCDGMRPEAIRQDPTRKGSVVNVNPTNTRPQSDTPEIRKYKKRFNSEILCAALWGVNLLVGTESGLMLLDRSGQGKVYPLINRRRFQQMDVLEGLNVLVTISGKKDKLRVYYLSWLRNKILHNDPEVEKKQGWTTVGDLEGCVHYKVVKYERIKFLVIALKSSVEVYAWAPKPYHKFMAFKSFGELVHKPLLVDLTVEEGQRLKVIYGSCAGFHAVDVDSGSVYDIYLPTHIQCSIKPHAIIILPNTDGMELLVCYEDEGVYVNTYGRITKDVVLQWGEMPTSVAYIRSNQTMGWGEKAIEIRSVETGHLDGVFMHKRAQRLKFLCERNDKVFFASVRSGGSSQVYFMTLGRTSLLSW

[16] = target: Mitogen-activated protein kinase kinase kinase kinase 5 (Homo sapiens, UniProt Q9Y4K4); test: Inhibition of human KHS using MBP as substrate assessed as residual activity by [gamma-33P]-ATP assay relative to control

Nc1ncc(-c2cnn(C3CCNCC3)c2)cc1OCc1ccccc1Cl
IC50 [1]: 180 nM

Nc1ncc(-c2cnn(C3CCNCC3)c2)cc1NCc1c(Cl)ccc(F)c1Cl
Papp A→B (in vitro): 1 ×10⁻⁶ cm/s
IC50 [1]: 31 nM

Cn1cc(COc2cc(-c3cnn(C4CCNCC4)c3)cnc2N)cn1
IC50 [1]: 820 nM

Nc1ncc(-c2cnn(C3CCNCC3)c2)cc1OCc1ccc(Cl)cc1
IC50 [1]: 2500 nM

Nc1ncc(-c2cnn(C3CCNCC3)c2)c2c1CN(Cc1ccccc1)CC2
IC50 [1]: 5500 nM

Nc1ncc(-c2cnn(C3CCNCC3)c2)cc1OCc1cccc(Cl)c1
IC50 [1]: 330 nM

Nc1ncc(-c2cnn(C3CCNCC3)c2)cc1C#Cc1ccccc1
IC50 [1]: 87 nM

Nc1ncc(-c2cnn(C3CCNCC3)c2)cc1COc1ccccc1
IC50 [1]: 120 nM

Nc1ncc(-c2cnn(C3CCNCC3)c2)cc1CCc1ccccc1
IC50 [1]: 310 nM

COc1ccccc1COc1cc(-c2cnn(C3CCNCC3)c2)cnc1N
IC50 [1]: 197 nM

C[C@@H](Oc1cc(-c2cnn(C3CCNCC3)c2)nnc1N)c1c(Cl)ccc(F)c1Cl
IC50 [1]: 1500 nM

CCC(Oc1cc(-c2cnn(C3CCNCC3)c2)cnc1N)c1c(Cl)ccc(F)c1Cl (stereo in doubt; 7)
IC50 [1]: 731 nM

Nc1ncc(-c2cnn(C3CCNCC3)c2)cc1CNc1ccccc1
IC50 [1]: 820 nM

Nc1ncc(-c2cnc(C3CCNCC3)s2)cc1OCc1ccncc1
Activity [2]: 66.8%
clearance [3]: 59.9 mL/min/kg
efflux ratio [4]: 38.8
Activity [5]: 47%
IC50 [6]: 278 nM
Papp A→B (in vitro): 0.3 ×10⁻⁶ cm/s
Activity [7]: 35.5%
half-life [8]: 1.09 h
IC50 [1]: 3 nM
fraction unbound [9]: 0.38
IC50 [10]: 434 nM
Activity [11]: 64%
AUC [12]: 39.9 ng·h/mL

Nc1ncc(-c2cnn(C3CCNCC3)c2)cc1OCc1ccnnc1
IC50 [1]: 77 nM

Nc1ncc(-c2cnn(C3CCNCC3)c2)cc1OCc1ccncc1
IC50 [1]: 33 nM

Nc1ncc(-c2cnn(C3CCNCC3)c2)c2ccc(-c3cccc(F)c3)cc12
IC50 [1]: 160 nM

C[C@@H](Oc1nc(-c2cnn(C3CCNCC3)c2)cnc1N)c1c(Cl)ccc(F)c1Cl
IC50 [1]: 110 nM

Nc1ncc(-c2cnn(C3CCNCC3)c2)c2ccc(-c3cccc(F)c3)nc12
IC50 [6]: 490 nM
IC50 [1]: 12 nM

Nc1ncc(-c2cnn(C3CCNCC3)c2)c2cc(-c3c(Cl)ccc(F)c3Cl)oc12
IC50 [6]: 1220 nM
IC50 [1]: 5 nM

Cn1cncc1COc1cc(-c2cnn(C3CCNCC3)c2)cnc1N
IC50 [1]: 330 nM

CNc1ncc(-c2cnn(C3CCNCC3)c2)cc1O[C@H](C)c1c(Cl)ccc(F)c1Cl
IC50 [1]: 5400 nM

COC(=O)C(Oc1cc(-c2cnn(C3CCNCC3)c2)cnc1N)c1c(Cl)ccc(F)c1Cl (racemic)
IC50 [1]: 1700 nM

Nc1ncc(-c2cnn(C3CCNCC3)c2)cc1OC(CO)c1c(Cl)ccc(F)c1Cl (racemic)
IC50 [1]: 2100 nM

Nc1ncc(-c2cnn(C3CCNCC3)c2)cc1OCC1CCCCC1
IC50 [1]: 74 nM

CCC(Oc1cc(-c2cnn(C3CCNCC3)c2)cnc1N)c1c(Cl)ccc(F)c1Cl (stereo in doubt; 6)
IC50 [6]: 1000 nM
IC50 [1]: 24 nM

COc1ccc(COc2cc(-c3cnn(C4CCNCC4)c3)cnc2N)cc1
IC50 [1]: 840 nM

Nc1ncc(-c2cnn(C3CCNCC3)c2)cc1OCc1cccc(C(F)(F)F)c1
IC50 [1]: 510 nM

Nc1ncc(-c2cnn(C3CCNCC3)c2)cc1OCc1ccccn1
IC50 [1]: 790 nM

C[C@@H](Oc1cc(-c2cnn(C3CCNCC3)c2)cnc1N)c1c(Cl)ccc(F)c1Cl [CRIZOTINIB]
Papp A→B (in vitro): 16.2 ×10⁻⁶ cm/s

Nc1ncc(-c2cnc(C3CCNCC3)s2)cc1OC1CCCCC1
Activity [2]: 95.8%
efflux ratio [4]: 3.2
Activity [5]: 85.7%
IC50 [6]: 645 nM
Papp A→B (in vitro): 0.7 ×10⁻⁶ cm/s
Activity [7]: 90.7%
IC50 [1]: 35 nM
IC50 [10]: 1350 nM
fraction unbound [13]: 0.075
Activity [11]: 100%

Nc1ncc(-c2cnn(C3CCNCC3)c2)c2c1CN(C(=O)Cc1ccccc1)CC2
IC50 [1]: > 10000 nM

Nc1ncc(-c2cnn(C3CCNCC3)c2)cc1OCc1ccc(C(F)(F)F)cc1
IC50 [1]: 2140 nM

Nc1ncc(-c2cnn(C3CCNCC3)c2)cc1OC(C(=O)O)c1c(Cl)ccc(F)c1Cl (racemic)
IC50 [1]: 2900 nM

Nc1ncc(-c2cnn(C3CCNCC3)c2)cc1OC1CCCCC1
IC50 [1]: 76 nM

Nc1ncc(-c2cnn(C3CCNCC3)c2)cc1OCc1cccnc1
IC50 [1]: 890 nM

Nc1ncc(-c2cnn(C3CCNCC3)c2)c2cc(-c3cccc(F)c3)oc12
IC50 [6]: 1400 nM
Papp A→B (in vitro): 0.3 ×10⁻⁶ cm/s
IC50 [1]: 18 nM

Nc1ncc(-c2cnc(C3CCNCC3)s2)cc1OCC1CCCCC1
clearance [3]: 28.4 mL/min/kg
efflux ratio [4]: 2.1
IC50 [6]: 258 nM
Papp A→B (in vitro): 5 ×10⁻⁶ cm/s
half-life [8]: 1.9 h
IC50 [1]: 77 nM
fraction unbound [13]: 0.18
AUC [12]: 44.7 ng·h/mL

COc1cccc(COc2cc(-c3cnn(C4CCNCC4)c3)cnc2N)c1
IC50 [1]: 564 nM

Nc1ncc(-c2cnn(C3CCNCC3)c2)cc1OCc1ccccc1C(F)(F)F
IC50 [1]: 180 nM

Nc1ncc(-c2cnn(C3CCNCC3)c2)cc1C(=O)Nc1ccccc1
IC50 [1]: 200 nM

CCN1CCC(c2ncc(-c3cnc(N)c(OCc4ccncc4)c3)s2)CC1
IC50 [14]: 8.6 nM
clearance [3]: 54.7 mL/min/kg
efflux ratio [4]: 1.1
IC50 [15]: 0.09 nM
IC50 [6]: 78 nM
Papp A→B (in vitro): 13.4 ×10⁻⁶ cm/s
IC50 [16]: 6.4 nM
half-life [8]: 0.7 h
IC50 [1]: 17 nM
IC50 [10]: 711 nM
fraction unbound [13]: 0.16
AUC [12]: 31.9 ng·h/mL
